The results in this text go back to US12281118B2, “Nitrogen-containing fused heterocyclic SHP2 inhibitor compound, preparation method, and use” (SHANGHAI RINGENE BIOPHARMA CO., LTD., priority 2018, dated 2025).

The subject of data set [1] is MV4-11 leukemia cells. Put plainly: Inhibition of proliferation of MV4-11 leukemia cells (CellTiter-Glo, 72 h). The format is cell-based. As to conditions: Homo sapiens, MV4-11, 72 h, read-out: IC50 value, MV4-11 cell proliferation. On the procedure: Specific experimental procedures: 1) At Day 0: Inoculating trypsin-digested cells in 96-well plate and suspending the plate in cell culture medium; measure cell density using an automatic cell counter, diluting the cells with the culture medium to appropriate density, adding 100 μl of cell suspension in the 96-well plate, and incubating a cell-free medium as a control well in a cell incubator with […] at 37° C. overnight; 2) Day 1: Treating test compounds of the cells using a drug for a total of 8 concentrations, and diluting at a 3× concentration, wherein 10 μM is a starting test concentration of the test compounds. […] IC50 values are obtained by a four-parameter regression using software attached to the plate reader (the specific results are shown in Table 2).

Data set [2] deals with H358 (lung cancer cells). Kind of data set: Cell proliferation inhibition, MTT. To be noted: Homo sapiens, NCI-H358. The format is cell-based. Here is the method: (§1) Incubating cells such as KYSE520 (oesophageal cancer cells), H358 (lung cancer cells), Colo-205 (colorectal cancer cells), MiaPaca-2 (pancreas cancer cells), MOLM 13 (leukemia cells), NCI—H 1666 (lung cancer cells), NCI—H 508 (lung cancer), KATO III (gastric cancer), HEK 293A (normal cells), H3255 (lung cancer), H1975 (lung cancer), PC-9 (lung cancer), A549 (lung cancer), SNU16 (gastric cancer), and H1299 (lung cancer) in a 96-well plate at 100 µl/well and 20,000 cells/mL, and supplementing 10% fetal bovine serum and 1% penicillin/streptomycin sulfate. With 0.5% dimethyl sulfoxide as a blank control, treating the cells in a solution of the test compounds under 3× dilution at an initial concentration of 10 μM in eight gradients, and incubating the plate in an incubator with 5% CO2 for a certain period of time. At the end of the incubation, adding 10 μL of an MTT stock solution (5 mg/mL) to each well. Incubating the plates at 37° C. for 4 hours, and then removing the culture medium. Adding the dimethyl sulfoxide (100 μL) to each well, and then shaking well. Measuring the absorbance of a formazan product at 570 nm on a Thermo Scientific Varioskan Flash multi-mode reader. Fitting dose-response data to a three-parameter nonlinear regression model using GraphPad Prism 6.0 software to obtain IC50 values.

The test system of data set [3] is KYSE520 (oesophageal cancer cells). Put plainly: Cell proliferation inhibition, MTT. Format: cell-based. As to conditions: Homo sapiens, KYSE-520. On the procedure:
as §1

Data set [4] concerns NCI-H1666 (lung cancer cells). Put plainly: Cell proliferation inhibition, MTT. The format is cell-based. As to conditions: Homo sapiens. On the procedure:
as §1

Data set [5] relates to SNU16 (gastric cancer). Put plainly: Cell proliferation inhibition, MTT. Format: cell-based. As to conditions: Homo sapiens; SNU 16. Here is the method:
as §1

Data set [6] concerns KATO III (gastric cancer). Put plainly: Cell proliferation inhibition, MTT. To be noted: Homo sapiens. The format is cell-based. On the procedure: as §1
Data set [7] concerns MOLM 13 (leukemia cells). Kind of data set: Cell proliferation inhibition, MTT. Format: cell-based. As to conditions: Homo sapiens. On the procedure:
as §1

Data set [8] relates to NCI-H 508 (lung cancer). Kind of data set: Cell proliferation inhibition, MTT. As to conditions: Homo sapiens, NCI-H508. Format: cell-based. Here is the method:
as §1

Data set [9] can be described thus: in vitro. Format: in vitro ADME. As to conditions: 1 μM compound. Here is the method:
Metabolic stability test: Incubating 150 μL of liver microsomes (final concentration 0.5 mg/mL) containing NADPH (final concentration 1 mM), 1 μM of test compound and a positive control midazolam or a negative control atenolol for metabolic stability, terminating the reaction with acetonitrile containing tinidazole at 0 min, 5 min, 10 min and 30 min, respectively, vortexing for 10 min, centrifuging at 15,000 rmp for 10 min, and injecting 50 μL of supernatant into a 96-well plate. Calculating the metabolic stability of the compounds by determining the relative reduction of a parent drug.

Data set [10] has as its target CYP2C8 (Homo sapiens (Human), UniProt P10632). Put plainly: biochemical. Format: in vitro ADME.
Data set [11] concerns the target CYP2D6 (Homo sapiens (Human), UniProt P10635). Kind of data set: biochemical. Format: in vitro ADME. On the procedure:
(§2) Direct inhibition test (DI test): Incubating 100 μL of human liver microsomes (final concentration 0.2 mg/mL) containing NADPH (final concentration 1 mM), 10 μM of compound, a positive inhibitor cocktail (ketoconazole 10 μM, quinidine 10 μM, sulfaphenazole 100 μM, a-naphthoflavone 10 μM, and tranylcypromine 1,000 μM), a negative control (BPS containing 0.1% dimethyl sulfoxide) and a mixed probe substrate (midazolam 10 μM, testosterone 100 μM, dextromethorphan 10 μM, diclofenac 20 μM, phenacetin 100 μM, and mephenytoin 100 μM) for direct inhibition, and terminating the reaction after 20 min of the incubation. Calculating the relative enzyme activity by measuring the relative production of metabolites.

Data set [12] concerns the target CYP2C9 (Homo sapiens (Human), UniProt P11712). Put plainly: biochemical. The format is in vitro ADME. On the procedure: as §2
In data set [13] the target is CYP2C19 (Homo sapiens (Human), UniProt P33261). Put plainly: biochemical. The format is in vitro ADME. Here is the method:
as §2

Data set [14] addresses CYP3A4 (Homo sapiens (Human), UniProt P08684). Kind of data set: biochemical. Format: in vitro ADME. On the procedure:
as §2

Setting [15] is: monkey, monkeys liver microsomes.

Sequence of CYP2C19 (P33261 whole entry): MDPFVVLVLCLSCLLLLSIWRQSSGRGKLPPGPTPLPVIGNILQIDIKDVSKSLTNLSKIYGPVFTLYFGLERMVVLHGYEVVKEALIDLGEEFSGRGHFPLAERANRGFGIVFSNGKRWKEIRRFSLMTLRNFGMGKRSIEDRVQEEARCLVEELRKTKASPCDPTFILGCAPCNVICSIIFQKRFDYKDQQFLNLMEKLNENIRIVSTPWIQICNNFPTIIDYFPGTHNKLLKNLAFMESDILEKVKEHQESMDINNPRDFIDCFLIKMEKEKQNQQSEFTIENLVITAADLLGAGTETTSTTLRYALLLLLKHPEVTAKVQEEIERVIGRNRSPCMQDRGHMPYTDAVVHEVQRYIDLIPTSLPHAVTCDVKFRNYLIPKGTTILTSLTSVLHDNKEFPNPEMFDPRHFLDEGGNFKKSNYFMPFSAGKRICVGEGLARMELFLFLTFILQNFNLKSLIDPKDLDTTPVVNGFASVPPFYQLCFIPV
Sequence of CYP2C9 (P11712 whole entry): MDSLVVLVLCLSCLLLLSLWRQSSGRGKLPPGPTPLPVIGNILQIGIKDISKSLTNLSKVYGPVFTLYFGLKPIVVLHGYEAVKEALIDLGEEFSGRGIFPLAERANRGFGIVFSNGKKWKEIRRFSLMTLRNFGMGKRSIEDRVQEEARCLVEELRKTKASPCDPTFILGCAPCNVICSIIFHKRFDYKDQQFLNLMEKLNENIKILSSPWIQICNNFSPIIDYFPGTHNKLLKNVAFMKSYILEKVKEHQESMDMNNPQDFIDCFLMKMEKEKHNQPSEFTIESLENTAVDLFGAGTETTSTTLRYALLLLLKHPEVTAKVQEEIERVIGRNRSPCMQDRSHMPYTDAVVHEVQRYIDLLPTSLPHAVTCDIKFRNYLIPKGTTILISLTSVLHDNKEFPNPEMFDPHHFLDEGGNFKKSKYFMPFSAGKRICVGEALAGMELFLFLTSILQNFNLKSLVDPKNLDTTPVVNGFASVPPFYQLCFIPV
Sequence of CYP2C8 (P10632 whole entry): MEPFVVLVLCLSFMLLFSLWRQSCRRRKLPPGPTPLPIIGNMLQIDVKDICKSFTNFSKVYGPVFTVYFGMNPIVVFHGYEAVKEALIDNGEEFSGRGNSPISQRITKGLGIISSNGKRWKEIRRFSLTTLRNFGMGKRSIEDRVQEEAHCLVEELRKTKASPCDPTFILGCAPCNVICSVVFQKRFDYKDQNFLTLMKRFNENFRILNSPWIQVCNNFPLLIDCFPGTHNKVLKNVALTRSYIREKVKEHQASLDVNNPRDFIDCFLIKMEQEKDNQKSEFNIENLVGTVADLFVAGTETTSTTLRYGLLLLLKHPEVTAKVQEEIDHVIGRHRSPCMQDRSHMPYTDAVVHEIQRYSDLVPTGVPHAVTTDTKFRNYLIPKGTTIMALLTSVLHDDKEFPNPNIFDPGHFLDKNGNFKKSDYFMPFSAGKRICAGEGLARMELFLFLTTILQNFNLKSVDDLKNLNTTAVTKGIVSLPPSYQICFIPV
Sequence of CYP2D6 (P10635 whole entry): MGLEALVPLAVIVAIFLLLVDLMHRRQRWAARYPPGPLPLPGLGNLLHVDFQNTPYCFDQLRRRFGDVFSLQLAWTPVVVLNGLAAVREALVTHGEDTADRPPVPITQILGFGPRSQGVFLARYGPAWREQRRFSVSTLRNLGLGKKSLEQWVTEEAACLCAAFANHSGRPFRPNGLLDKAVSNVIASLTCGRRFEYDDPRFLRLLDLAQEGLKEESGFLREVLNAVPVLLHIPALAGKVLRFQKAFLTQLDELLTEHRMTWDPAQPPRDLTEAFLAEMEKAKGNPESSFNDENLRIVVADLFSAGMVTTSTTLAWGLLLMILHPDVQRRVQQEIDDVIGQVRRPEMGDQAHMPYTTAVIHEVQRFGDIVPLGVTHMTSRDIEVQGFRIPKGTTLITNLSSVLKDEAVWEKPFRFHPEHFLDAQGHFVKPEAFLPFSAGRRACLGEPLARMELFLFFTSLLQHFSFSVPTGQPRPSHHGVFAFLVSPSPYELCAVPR
Sequence of CYP3A4 (P08684 whole entry): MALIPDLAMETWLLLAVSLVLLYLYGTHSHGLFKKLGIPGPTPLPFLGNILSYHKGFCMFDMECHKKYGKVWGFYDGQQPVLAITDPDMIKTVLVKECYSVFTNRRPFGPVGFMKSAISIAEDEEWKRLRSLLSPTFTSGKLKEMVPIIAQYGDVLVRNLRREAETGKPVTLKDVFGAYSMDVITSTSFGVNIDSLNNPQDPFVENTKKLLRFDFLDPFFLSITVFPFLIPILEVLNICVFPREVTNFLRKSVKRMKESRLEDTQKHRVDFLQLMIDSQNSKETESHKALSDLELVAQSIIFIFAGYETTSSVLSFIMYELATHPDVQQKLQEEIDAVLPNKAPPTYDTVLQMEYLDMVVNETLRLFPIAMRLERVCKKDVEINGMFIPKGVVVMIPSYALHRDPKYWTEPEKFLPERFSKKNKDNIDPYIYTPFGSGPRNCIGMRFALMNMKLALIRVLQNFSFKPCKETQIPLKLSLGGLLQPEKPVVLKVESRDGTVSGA

Take `Nc1nccc(Sc2c(N)nc(N3CCC4(CC3)Cc3ccccc3[C@H]4N)n3ccnc23)c1Cl` [Example 4, (S)-1′-(7-amino-8-((2-amino-3-chloropyridin-4-yl)thio)imidazo [1,2-c]pyrimidin-5-yl)-1,3-dihydrospiro [indene-2,4′-piperidine]-1-amine]: the IC50 in data set [1] was 4.7 nM; in [2], under 100 nM; in data set [3] it was under 100 nM; in data set [4] it was under 100 nM; in data set [5], under 1000 nM; in data set [6], under 1000 nM. The IC50 in data set [7] was under 100 nM; in data set [8], under 100 nM; in data set [10], over 25000 nM; in data set [11] it was over 25000 nM; in [12], over 25000 nM; in data set [13] it was over 25000 nM. The IC50 in data set [14] is over 25000 nM. In addition, the half-life at 1 μM in [9] (dog, dogs liver microsomes) was over 1 h; in data set [9] (human liver microsomes), over 1 h; in data set [9] (setting [15]), over 1 h; in data set [9] (mouse, mice liver microsomes) it was over 1 h; in data set [9] (rat, rats liver microsomes) it was over 1 h.
For `Cc1nc(N2CCC3(CC2)Cc2ccccc2[C@H]3N)n2ccnc2c1Sc1ccnc(N)c1Cl` [Example 1, (S)-1′-(8-((2-amino-3-chloropyridin-4-yl)thio)-7-methylimidazo [1,2-c]pyrimidin-5-yl)-1,3-dihydrospiro [indene-2,4′-piperidine]-1-amine], the IC50 is 11 nM in data set [1]; under 100 nM in data set [2]; under 100 nM in data set [3]; under 100 nM in data set [4]; under 1000 nM in [5]; under 1000 nM in data set [6]. Moreover, the IC50 was under 100 nM in data set [7]; under 100 nM in [8]; over 25000 nM in data set [10]; over 25000 nM in data set [11]; over 25000 nM in data set [12]; over 25000 nM in data set [13]. In [14], this compound gave an IC50 of over 25000 nM. The half-life at 1 μM in data set [9] (dog, dogs liver microsomes) was over 1 h; in [9] (human liver microsomes) it was over 1 h; in [9] (setting [15]), over 1 h; in [9] (mouse, mice liver microsomes), over 1 h; in [9] (rat, rats liver microsomes), over 1 h.
